These results are taken from US8785463B2, “GPR 119 agonists” (Cadila Healthcare Limited, priority 2010, dated 2014).

Assay [1] deals with T1, human GPR 119 receptor (Homo sapiens, UniProt Q8TDV5).
T1 construct: expressed in transfected cells
T1 sequence (Q8TDV5 1-335): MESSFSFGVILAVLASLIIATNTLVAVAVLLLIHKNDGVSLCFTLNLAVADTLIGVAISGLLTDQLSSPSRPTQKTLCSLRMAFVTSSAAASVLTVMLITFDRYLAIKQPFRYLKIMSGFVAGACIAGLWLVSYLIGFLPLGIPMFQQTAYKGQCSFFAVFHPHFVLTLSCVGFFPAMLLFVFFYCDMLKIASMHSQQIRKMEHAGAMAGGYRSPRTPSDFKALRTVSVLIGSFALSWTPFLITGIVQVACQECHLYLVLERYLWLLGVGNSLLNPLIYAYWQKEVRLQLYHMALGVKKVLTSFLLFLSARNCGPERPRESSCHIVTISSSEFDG
The experiment in a line: cAMP assay in stable cell line expressing recombinant human GPR 119 receptor. Conditions: for Fold increase in cyclic AMP with respective to DMSO: DMSO = 1. The assay is classed as cell-based. From the text:
A stable cell line expressing recombinant human GPR 119 receptor was established and used to investigate the efficacy of the compounds of the invention based on the intracellular levels of cyclic AMP (cAMP) using commercially available cAMP kits.

Assay [2] concerns db/db mice. The experiment in a line: Oral Glucose Tolerance Tests (OGTT) in db/db mice. The note with it: single oral dose 50 mg/kg, glucose load 2 g/kg, AUC glucose excursion vs vehicle control. In kind it is in vivo. Here is the method:
Oral Glucose Tolerance Tests (OGTT) in db/db mice:
db/db mice of 5-7 week age are used for this experiment. Animals were kept on fasting and are grouped based on fasting serum glucose levels and after grouping OGTT was performed. Each animal receive a single dose of vehicle/test compounds (50 mg/kg) administered orally, 30 min post dosing animals are bled for basal glucose level estimation and at the same time glucose load (2 g/kg) will be administered per orally. Blood is collected at time points corresponding to 30, 60 and 120 min after glucose load administration. Serum is separated for determination of glucose levels and change in area under curve for glucose and glucose excursion is calculated from Vehicle control with glucose load Vs water control group without glucose load and provided in Table 4 as % reduction in AUC glucose excursion Vs Vehicle control is calculated.

Assay [3] relates to C57/BL6 mice. The experiment in a line: Oral Glucose Tolerance Tests (OGTT) in C57/BL6 mice. In kind it is in vivo. The note with it: single oral dose, glucose load 3 gm/kg, serum glucose AUC, head 50 mg/kg. On the procedure:
In Vivo Efficacy Studies: Oral Glucose Tolerance Tests (OGTT) in C57/13L6 mice:
C57/BL6 mice of 6-8 week age are used for this experiment. Animals are grouped based on non-fasting serum glucose levels and kept on fasting for overnight (day before OGTT). On the experiment day, […], 30 min post dosing animals are bled for basal glucose level estimation and at the same time glucose load (3 gm/kg) will be administered per orally. Blood is collected at time points corresponding to 20, 40, 60 and 120 min after glucose load administration. Serum is separated for determination of glucose levels and change in area under curve for glucose is calculated and provided in Table 3 as % to reduction in AUC.

In the case of `Cc1c(Oc2ccc(/C=C3\SC(=O)NC3=O)cc2)ncnc1OC1CCN(C(=O)OC(C)(C)C)CC1` [Example 1, (Z)-tert-Butyl 4-((6-(4-((2,4-dioxothiazolidin-5-ylidene)methy 1)phenoxy)-5-methylpyrimidin-4-yl)oxy)piperidine-1-carboxylate], the EC50 (usually the concentration needed to bring the measured effect to its halfway point) in assay [1] worked out at 0.088 µM. The “Fold increase in cyclic AMP with respective to DMSO” value (from here on “Fold increase in cyclic AMP”) in assay [1] (10 nM compound) amounted to 0.90 fold; in assay [1] (100 nM compound), 2.27 fold; in assay [1] (1 uM compound), 3.96 fold. In addition, the “% reduction in AUC at 50 mg/kg” value in assay [2] stood at 56.2%; in assay [3] it was 35.0%.

With `CCOC(=O)CN1C(=O)S/C(=C\c2ccc(Oc3ncnc(OC4CCN(C(=O)OC(C)(C)C)CC4)c3C)cc2)C1=O` [Example 2, (Z)-tert-Butyl 4-((6-(4-((3-(2-ethoxy-2-oxoethyl)-2,4-dioxothiazolidin-5-ylidene)methyl)phenoxy)-5-methylpyrimidin-4-yl)oxy)piperidine-1-carboxylate], the “Fold increase in cyclic AMP” value in assay [1] (10 nM compound) is 5.90 fold; in assay [1] (100 nM compound) it was 8.00 fold; in assay [1] (1 uM compound) it was 12.56 fold. Also, the “% reduction in AUC at 50 mg/kg” value is 47.3% in assay [2] and 13.0% in assay [3].

As to `Cc1c(Oc2ccc(/C=C3\SC(=O)NC3=O)cc2)ncnc1OC1CCN(c2nc(C(C)C)no2)CC1` [Example 7, (Z)-5-(4-((6-((1-(3-iso-Propyl-1,2,4-oxadiazol-5-yl)piperidin-4-yl)oxy)-5-methylpyrimidin-4-yl)oxy)benzylidene)thiazolidine-2,4-dione], the EC50 in assay [1] is 0.124 µM. Besides, the figures for the “Fold increase in cyclic AMP” value in assay [1] (10 nM compound), in assay [1] (100 nM compound) and in assay [1] (1 uM compound) were 0.79 fold, 1.32 fold and 2.24 fold, respectively. The “% reduction in AUC at 50 mg/kg” value in assay [2] was found to be 22.4%; in assay [3] it was 29.0%.

Take `Cc1c(Oc2cccc(/C=C3\SC(=O)NC3=O)c2)ncnc1OC1CCN(C(=O)OC(C)(C)C)CC1` [Example 9, (Z)-tert-Butyl 4-((6-(3-((2,4-dioxothiazolidin-5-ylidene)methyl)phenoxy)-5-methylpyrimidin-4-yl)oxy)piperidine-1-carboxylate]: the EC50 in assay [1] came out at 0.043 µM. Also, the “Fold increase in cyclic AMP” value in assay [1] (10 nM compound) is on record as 2.54 fold; in assay [1] (100 nM compound) it was 4.86 fold; in assay [1] (1 uM compound) it was 6.57 fold. Moreover, the “% reduction in AUC at 50 mg/kg” value amounted to 69.1% in assay [2] and 32.4% in assay [3].

For the molecule `CC(C)(C)OC(=O)N1CCC(Oc2cc(Oc3ccc(/C=C4\SC(=O)NC4=O)cc3)ncn2)CC1` [Example 12, (Z)-tert-Butyl 4-((6-(4-((2,4-dioxothiazolidin-5-ylidene)methyl)phenoxy)pyrimidin-4-yl)oxy)piperidine-1-carboxylate], in assay [1], the EC50 came out at 0.13 µM. Also, the “Fold increase in cyclic AMP” value is 2.22 fold in assay [1] (10 nM compound), 4.47 fold in assay [1] (100 nM compound) and 7.00 fold in assay [1] (1 uM compound). Besides, the “% reduction in AUC at 50 mg/kg” value stood at 66.7% in assay [2] and 23.4% in assay [3].

For `Cc1c(Oc2cccc(/C=C3\SC(=O)NC3=O)c2)ncnc1OC1CCN(C(=O)OCc2ccccc2)CC1` [Example 50, (Z)-Benzyl 4-((6-(3-((2,4-dioxothiazolidin-5-ylidene)methyl)phenoxy)-5-methylpyrimidin-4-yl)oxy)piperidine-1-carboxylate], the “Fold increase in cyclic AMP” value in assay [1] (10 nM compound) is listed as 1.73 fold; in assay [1] (100 nM compound) it was 4.66 fold; in assay [1] (1 uM compound) it was 5.74 fold.

As to `CCOC(=O)N1CCC(Oc2cc(Oc3cccc(/C=C4\SC(=O)NC4=O)c3)ncn2)CC1` [Example 51, (Z)-Ethyl 4-((6-(3-((2,4-dioxothiazolidin-5-ylidene)methyl)phenoxy)pyrimidin-4-yl)oxy)piperidine-1-carboxylate], the “Fold increase in cyclic AMP” value in assay [1] (10 nM compound) is 0.79 fold; in assay [1] (100 nM compound), 1.25 fold; in assay [1] (1 uM compound), 2.81 fold.

Regarding `CCOC(=O)N1CCC(Oc2cc(Oc3ccc(/C=C4\SC(=O)NC4=O)cc3)ncn2)CC1` [Example 52, (Z)-Ethyl 4-((6-(4-((2,4-dioxothiazolidin-5-ylidene)methyl)phenoxy)pyrimidin-4-yl)oxy)piperidine-1-carboxylate], the “Fold increase in cyclic AMP” value in assay [1] (10 nM compound) is on record as 1.15 fold; in assay [1] (100 nM compound) it was 1.94 fold; in assay [1] (1 uM compound), 3.36 fold.

Consider `CC(C)COC(=O)N1CCC(Oc2cc(Oc3ccc(/C=C4\SC(=O)NC4=O)cc3)ncn2)CC1` [Example 53, (Z)-Isobutyl 4-((6-(4-((2,4-dioxothiazolidin-5-ylidene)methyl)phenoxy)pyrimidin-4-yl)oxy)piperidine-1-carboxylate], for which the “Fold increase in cyclic AMP” value was determined as 0.99 fold in assay [1] (10 nM compound), 1.79 fold in assay [1] (100 nM compound) and 3.59 fold in assay [1] (1 uM compound).

For `CC(C)COC(=O)N1CCC(Oc2cc(Oc3cccc(/C=C4\SC(=O)NC4=O)c3)ncn2)CC1` [Example 54, (Z)-Isobutyl 4-((6-(3-((2,4-dioxothiazolidin-5-ylidene)methyl)phenoxy)pyrimidin-4-yl)oxy)piperidine-1-carboxylate], the figures for the “Fold increase in cyclic AMP” value in assay [1] (10 nM compound), in assay [1] (100 nM compound) and in assay [1] (1 uM compound) were 1.31 fold, 2.28 fold and 4.11 fold, respectively.

For the molecule `CCc1cnc(N2CCC(Oc3cc(Oc4cccc(/C=C5\SC(=O)NC5=O)c4)ncn3)CC2)nc1` [Example 55], the entries for the “Fold increase in cyclic AMP” value in assay [1] (10 nM compound), in assay [1] (100 nM compound) and in assay [1] (1 uM compound) were 1.18 fold, 2.86 fold and 4.77 fold, respectively.

In the case of `CC(C)c1noc(N2CCC(Oc3cc(Oc4cccc(/C=C5\SC(=O)NC5=O)c4)ncn3)CC2)n1` [Example 66, (Z)-5-(3-((6-((1-(3-isopropyl-1,2,4-oxadiazol-5-yl)piperidin-4-yl)oxy)pyrimidin-4-yl)oxy)benzylidene)thiazolidine-2,4-dione], the EC50 in assay [1] came to 0.071 µM. Moreover, the “% reduction in AUC at 50 mg/kg” value in assay [3] was determined as 41.1%.
